Experimental data from the NIST ThermoML archive (doi:10.1021/je050402s).

Assay: xn = mol fraction of the nth substance listed
Conditions: 100.5 kPa, Liquid; for viscosity: Capillary tube (Ostwald / Ubbelohde) method

CCC(=O)OCc1ccccc1 [benzyl propanoate] + CCO
Conditions | mass density, 288.15 K [kg/m3] | mass density, 298.15 K [kg/m3] | mass density, 308.15 K [kg/m3] | mass density, 318.15 K [kg/m3] | viscosity, 288.15 K [mPa·s] | viscosity, 298.15 K [mPa·s] | viscosity, 308.15 K [mPa·s] | viscosity, 318.15 K [mPa·s]
x1 = 0.05 | 825.63 | 816.86 | 807.99 | 798.97 | 1.352 | 1.115 | 0.929 | 0.777
x1 = 0.1 | 852.43 | 843.5 | 834.48 | 825.3 | 1.379 | 1.14 | 0.949 | 0.795
x1 = 0.15 | 875.21 | 866.17 | 857.03 | 847.75 | 1.42 | 1.173 | 0.976 | 0.819
x1 = 0.2 | 894.95 | 885.82 | 876.6 | 867.25 | 1.466 | 1.211 | 1.009 | 0.848
x1 = 0.25 | 912.16 | 902.96 | 893.68 | 884.27 | 1.516 | 1.253 | 1.044 | 0.879
x1 = 0.3 | 927.38 | 918.13 | 908.8 | 899.34 | 1.571 | 1.298 | 1.084 | 0.913
x1 = 0.35 | 940.83 | 931.54 | 922.17 | 912.69 | 1.631 | 1.348 | 1.127 | 0.95
x1 = 0.4 | 952.87 | 943.55 | 934.16 | 924.65 | 1.694 | 1.401 | 1.171 | 0.988
x1 = 0.45 | 963.72 | 954.39 | 944.97 | 935.46 | 1.757 | 1.454 | 1.217 | 1.027
x1 = 0.5 | 973.57 | 964.22 | 954.79 | 945.28 | 1.821 | 1.509 | 1.263 | 1.067
x1 = 0.55 | 982.43 | 973.07 | 963.63 | 954.12 | 1.886 | 1.564 | 1.31 | 1.107
x1 = 0.6 | 990.54 | 981.17 | 971.74 | 962.24 | 1.952 | 1.621 | 1.358 | 1.148
x1 = 0.65 | 997.98 | 988.61 | 979.19 | 969.71 | 2.019 | 1.678 | 1.407 | 1.19
x1 = 0.7 | 1004.81 | 995.44 | 986.04 | 976.58 | 2.088 | 1.737 | 1.457 | 1.233
x1 = 0.75 | 1011.09 | 1001.73 | 992.35 | 982.93 | 2.158 | 1.797 | 1.509 | 1.278
x1 = 0.8 | 1016.98 | 1007.63 | 998.28 | 988.88 | 2.23 | 1.858 | 1.562 | 1.323
x1 = 0.85 | 1022.5 | 1013.15 | 1003.82 | 994.46 | 2.305 | 1.921 | 1.617 | 1.37
x1 = 0.9 | 1027.59 | 1018.25 | 1008.96 | 999.64 | 2.383 | 1.986 | 1.674 | 1.419
x1 = 0.95 | 1032.37 | 1023.06 | 1013.8 | 1004.53 | 2.463 | 2.053 | 1.729 | 1.468
x1 = 1 | 1036.86 | 1027.6 | 1018.38 | 1009.15 | 2.55 | 2.123 | 1.787 | 1.515

COC(=O)c1ccccc1 [methyl benzoate] + CCO
Conditions | mass density, 288.15 K [kg/m3] | mass density, 298.15 K [kg/m3] | mass density, 308.15 K [kg/m3] | mass density, 318.15 K [kg/m3] | viscosity, 288.15 K [mPa·s] | viscosity, 298.15 K [mPa·s] | viscosity, 308.15 K [mPa·s] | viscosity, 318.15 K [mPa·s]
x1 = 0.05 | 825.66 | 816.86 | 807.97 | 798.9 | 1.324 | 1.092 | 0.911 | 0.766
x1 = 0.1 | 853.88 | 844.92 | 835.86 | 826.58 | 1.323 | 1.094 | 0.915 | 0.77
x1 = 0.15 | 879.1 | 869.96 | 860.69 | 851.28 | 1.338 | 1.107 | 0.924 | 0.782
x1 = 0.2 | 901.63 | 892.4 | 883.02 | 873.48 | 1.359 | 1.122 | 0.94 | 0.797
x1 = 0.25 | 922.04 | 912.73 | 903.27 | 893.66 | 1.383 | 1.144 | 0.958 | 0.814
x1 = 0.3 | 940.62 | 931.27 | 921.76 | 912.06 | 1.417 | 1.171 | 0.981 | 0.834
x1 = 0.35 | 957.58 | 948.19 | 938.63 | 928.88 | 1.455 | 1.199 | 1.006 | 0.855
x1 = 0.4 | 973.15 | 963.7 | 954.11 | 944.3 | 1.496 | 1.232 | 1.031 | 0.877
x1 = 0.45 | 987.48 | 978.01 | 968.36 | 958.52 | 1.541 | 1.266 | 1.061 | 0.902
x1 = 0.5 | 1000.69 | 991.23 | 981.53 | 971.68 | 1.589 | 1.303 | 1.091 | 0.928
x1 = 0.55 | 1012.94 | 1003.42 | 993.75 | 983.88 | 1.64 | 1.341 | 1.123 | 0.954
x1 = 0.6 | 1024.33 | 1014.81 | 1005.11 | 995.26 | 1.692 | 1.384 | 1.158 | 0.982
x1 = 0.65 | 1034.94 | 1025.44 | 1015.73 | 1005.87 | 1.746 | 1.429 | 1.193 | 1.014
x1 = 0.7 | 1044.83 | 1035.36 | 1025.64 | 1015.8 | 1.807 | 1.475 | 1.231 | 1.047
x1 = 0.75 | 1054.13 | 1044.67 | 1034.95 | 1025.13 | 1.87 | 1.526 | 1.275 | 1.083
x1 = 0.8 | 1062.88 | 1053.41 | 1043.73 | 1033.93 | 1.942 | 1.581 | 1.318 | 1.122
x1 = 0.85 | 1071.11 | 1061.7 | 1052.04 | 1042.24 | 2.03 | 1.645 | 1.369 | 1.166
x1 = 0.9 | 1078.93 | 1069.53 | 1059.87 | 1050.1 | 2.118 | 1.712 | 1.421 | 1.208
x1 = 0.95 | 1086.31 | 1076.94 | 1067.3 | 1057.55 | 2.207 | 1.784 | 1.48 | 1.255
x1 = 1 | 1093.23 | 1083.92 | 1074.34 | 1064.62 | 2.297 | 1.851 | 1.531 | 1.297
